According to PMC4812366, “3,1-Benzothiazines, 1,4-Benzodioxines and 1,4-Benzoxazines as Inhibitors of Matriptase-2: Outcome of a Focused Screening Approach” (Pharmaceuticals, 2016):
Where two headings read alike, the source gives them in different places.

Columns and labels:
human matriptase-2 [1] = molecular target: T1, human matriptase-2 (Homo sapiens, UniProt Q8IU80); test: Human matriptase-2 inhibition, fluorogenic substrate Boc-Gln-Ala-Arg-AMC, conditioned medium of HEK-MT2 cells; type: biochemical; conditions: for IC50: substrate 40 µM, pH 8.0, 37 °C; for matriptase-2 inhibitory activity in words: screening at single inhibitor concentration of 40 µM
T1 construct: The conditioned medium of HEK-MT2 cells was used as a source of matriptase-2 activity; expressed in transfected cells; host or cells: HEK-MT2 cells (conditioned medium, collected and concentrated)
T1 sequence (Q8IU80 577-811 limits assumed): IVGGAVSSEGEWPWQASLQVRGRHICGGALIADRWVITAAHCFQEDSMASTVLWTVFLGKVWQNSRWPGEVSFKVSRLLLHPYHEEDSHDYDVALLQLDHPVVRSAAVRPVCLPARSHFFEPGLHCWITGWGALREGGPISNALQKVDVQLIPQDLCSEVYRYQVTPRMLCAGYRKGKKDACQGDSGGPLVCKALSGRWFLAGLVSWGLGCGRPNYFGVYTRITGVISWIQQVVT
T1 sequence (Q8IU80 438-576 partner limits assumed): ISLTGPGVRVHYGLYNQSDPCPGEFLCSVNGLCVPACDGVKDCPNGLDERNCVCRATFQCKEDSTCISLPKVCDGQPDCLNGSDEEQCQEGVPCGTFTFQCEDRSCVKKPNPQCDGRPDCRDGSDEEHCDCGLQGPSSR
Method: The conditioned medium of HEK-MT2 cells was used as a source of matriptase-2 activity and assay conditions were as follows. Assay buffer was 50 mM Tris–HCl, 150 mM NaCl, pH 8.0. The conditioned medium was collected and concentrated, and aliquots of the supernatant were stored at −20 °C. After thawing, it was diluted with assay buffer (1:10 or 1:20 depending on the enzyme activity) and kept at 0 °C not longer than 8 h. The assays were performed at a FLUOstar OPTIMA PlateReader (BMG Labtech, Ortenberg, Germany). A 10 mM stock solution of the fluorogenic substrate Boc-Gln-Ala-Arg-AMC (Bachem, Bubendorf, Switzerland) in DMSO was diluted with assay buffer. The final concentration of the substrate was 40 µM and of DMSO was 6%. The substrate concentration of 40 µM refers to 1.24 × Km. Into each well containing 163.8 µL buffer, 11.2 µL of an inhibitor solution in DMSO and 10 µL of a substrate solution (800 µM) were added and thoroughly mixed. At 37 °C the reaction was initiated by adding 15 µL of diluted conditioned medium and followed over 400 s. All measurements were performed in duplicate with a single inhibitor concentration of 40 µM. Active inhibitors were investigated in duplicate with five different concentrations. Benzamidine hydrochloride was purchased from Acros Organics (Geel, Belgium).
Progress curves were analyzed by linear regression. IC50 values were determined by nonlinear regression using the equation vs = v0/(1 + [I]/IC50), where vs is the steady-state rate, v0 is the rate in the absence of the inhibitor, and [I] is the inhibitor concentration. Standard errors of the mean (SEM) values refer to this nonlinear regression.

thrombin = conditions: cited from earlier work; for thrombin inhibition relative to trypsin and factor Xa, in words: ref [39],[41]
human matriptase-2 [2] = molecular target: T1, human matriptase-2; test: Human matriptase-2 inhibition, fluorogenic substrate Boc-Gln-Ala-Arg-AMC, conditioned medium of HEK-MT2 cells; type: biochemical; conditions: substrate concentrations of 20, 30, 40, 50 and 60 µM
[3] = Table 2, 2,3-dihydro-1,4-benzodioxines and 3,4-dihydro-2H-1,4-benzoxazines, values with SEM: duplicate, five inhibitor concentrations, limits: duplicate, single inhibitor concentration of 40 µM, read-out: IC50 (µM) ± SEM
[4] = Table 1, 4H-3,1-benzothiazin-4-ones, values with SEM: duplicate, five inhibitor concentrations, limits: duplicate, single inhibitor concentration of 40 µM, read-out: IC50 (µM) ± SEM
[5] = read-out: IC50 value for matriptase-2 inhibition

Row | SMILES | IC50 (human matriptase-2 [1]; [3]) | IC50 (human matriptase-2 [1]; [4]) | matriptase-2 inhibitory activity in words (human matriptase-2 [1]) | further results
1 | CN1C(=O)C(OCc2ccc(C(=N)N)cc2)Oc2cc(C(=O)Nc3ccccc3)ccc21 (stereo not shown) [Compound 21] | 42.6 ± 4.7 µM | – | – | –
2 | CCOC(=O)[C@H](CNC(=O)CN1C(=O)COc2cc(NC(=O)c3ccc(C(=N)N)cc3)ccc21)NS(=O)(=O)c1ccc(C)cc1 [Compound 23] | 20.5 ± 2 µM | – | – | –
3 | CN1CC(C)(COc2ccc(C(=N)N)cc2)Oc2ccc(N(Cc3cc(F)cc(F)c3)C(=O)C(=O)O)cc21 (stereo not shown) [Compound 14] | 35.8 ± 1.1 µM | – | – | –
4 | CCOC(=O)CN(Cc1ccc(F)cc1)c1ccc2c(c1)OC(C)(COc1ccc(C(=N)N)cc1)CN2C (stereo not shown) [Compound 18] | 31.6 ± 2.69 µM | – | – | –
5 | O=C(Nc1nc2ccccc2c(=O)s1)c1ccc(C(=O)N2CCN(Cc3ccccc3)CC2)cc1 [Compound 9] | – | > 160 µM | inactive | –
6 | CCOC(=O)C(=O)N(Cc1ccccc1)c1ccc2c(c1)O[C@@H](COc1ccc(C(=N)N)cc1)CO2 [(S)-12, (S)-Ethyl 2-(benzyl(3-((4-carbamidoylphenoxy)methyl)-2,3-dihydrobenzo[b][1,4]dioxin-6-yl)amino)-2-oxoacetate] | 8.47 ± 0.76 µM | – | – | IC50 (human matriptase-2 [1]; [5]): < 10 µM; thrombin inhibition in words (thrombin; ref [38]): highly potent
7 | CN(C)CCNC(=O)c1ccc2c(=O)sc(NC(=O)c3ccccc3)nc2c1 [Compound 2] | – | > 160 µM | loss of activity | –
8 | CN1CC(C)(COc2ccc(C(=N)N)cc2)Oc2cc(N(CC(=O)O)Cc3ccc(F)cc3)ccc21 (stereo not shown) [Compound 16] | 13.6 ± 2.31 µM | – | – | thrombin inhibition relative to trypsin and factor Xa, in words (thrombin): inhibited thrombin better than trypsin and factor Xa
9 | CCOC(=O)C1CCN(c2ccc(N3C[C@@H](CNCc4ccc(C(=N)N)cc4)OC3=O)cc2)CC1 [(R)-24] | > 40 µM | – | inactive | –
10 | N=C(N)c1ccc(OC[C@H]2COc3ccc(N(Cc4ccccc4)C(=O)C(=O)O)cc3O2)cc1 [(S)-10] | 16.7 ± 1.7 µM | – | – | –
11 | CN1CCN(C(=O)c2ccc3c(=O)sc(NC(=O)c4ccccc4)nc3c2)CC1 [Compound 4] | – | > 160 µM | – | –
12 | CN1CC(C)(COc2ccc(C(=N)N)cc2)Oc2ccc(N(CC(=O)O)Cc3ccc(F)cc3)cc21 (stereo not shown) [Compound 17] | 11.2 ± 1.61 µM | – | – | –
13 | CN1CC(C)(COc2ccc(C(=N)N)cc2)Oc2cc(NC(=O)CCC(=O)O)ccc21 (stereo not shown) [Compound 19] | 38.8 ± 3.14 µM | – | moderately active | type of inhibition (Lineweaver-Burk plot) (human matriptase-2 [2]): mixed type of inhibition
14 | O=C(Nc1nc2ccc(C(=O)N3CCN(Cc4ccccc4)CC3)cc2c(=O)s1)c1ccccc1 [Compound 5] | – | > 160 µM | inactive | –
15 | NCc1ccc(C(=O)Nc2nc3ccccc3c(=O)s2)cc1 [Compound 7] | – | 119 ± 9 µM | active | –
16 | N=C(N)c1ccc(CN2C(=O)COc3cc(NC(=O)[C@H](N)Cc4ccccc4)ccc32)cc1 [Compound 22] | 30.9 ± 3.4 µM | – | – | –
17 | N=C(N)c1ccc(OC[C@@H]2COc3ccc(N(Cc4ccccc4)C(=O)C(=O)O)cc3O2)cc1 [(R)-10] | 27.3 ± 2 µM | – | – | –
18 | N=C(N)c1ccccc1 [Benzamidine, reference compound] | – | – | lack of inhibitory activity | IC50 (human matriptase-2 [1]; [5]): > 400 µM
19 | N=C(N)c1ccc(OC[C@H]2COc3cc(N(Cc4ccccc4)C(=O)C(=O)O)ccc3O2)cc1 [(S)-11] | 29.8 ± 1.6 µM | – | – | –
20 | N=C(N)c1ccc(OC[C@@H]2COc3cc(N(Cc4ccccc4)C(=O)C(=O)O)ccc3O2)cc1 [(R)-11] | 33.6 ± 1.1 µM | – | – | –
21 | CN1CC(C)(COc2ccc(C(=N)N)cc2)Oc2cc(N(Cc3ccc(F)cc3)C(=O)C(=O)O)ccc21 (stereo not shown) [Compound 13] | > 40 µM | – | inactive | thrombin inhibition relative to trypsin and factor Xa, in words (thrombin): inhibited thrombin better than trypsin and factor Xa; thrombin inhibition in words (thrombin; ref [39]): highly active
22 | COc1ccc2cc(S(=O)(=O)NN(Cc3cccc(C(=N)N)c3)C(=O)N(C)C3CCCC3)ccc2c1 [Compound 25] | > 40 µM | – | inactive | –
23 | O=C(Nc1nc2cc(C(=O)N3CCN(Cc4ccccc4)CC3)ccc2c(=O)s1)c1ccccc1 [Compound 6] | – | > 160 µM | – | –
24 | CN1CCN(C(=O)c2ccc(C(=O)Nc3nc4ccccc4c(=O)s3)cc2)CC1 [Compound 8] | – | > 160 µM | inactive | –
25 | CN(C)CCNC(=O)c1ccc2nc(NC(=O)c3ccccc3)sc(=O)c2c1 [Compound 1] | – | 148 ± 28 µM | – | –
26 | COC(=O)C(Cc1ccccc1)C(=O)Nc1ccc2c(c1)OC(C)(COc1ccc(C(=N)N)cc1)CN2C (stereo not shown) [Compound 20] | 31.4 ± 3.6 µM | – | moderately active | –
27 | CN1CC(C)(COc2ccc(C(=N)N)cc2)Oc2cc(N(CC(=O)O)Cc3cc(F)cc(F)c3)ccc21 (stereo not shown) [Compound 15] | 25.8 ± 4 µM | – | – | thrombin inhibition relative to trypsin and factor Xa, in words (thrombin): inhibited thrombin better than trypsin and factor Xa
28 | CN1CCN(C(=O)c2ccc3nc(NC(=O)c4ccccc4)sc(=O)c3c2)CC1 [Compound 3] | – | > 160 µM | – | –
